Measured values from ChEMBL document CHEMBL1201861, “Genomics of Drug Sensitity in Cancer screening data, Wellcome Trust Sanger Institute”.

Legend:
SNU-387 = test: cells; type: functional, cell-based; conditions: Homo sapiens
Description: SANGER: Inhibition of human SNU-387 cell growth in a cell viability assay.

NCI-H2087 = test: cells; type: functional, cell-based; conditions: Homo sapiens
Description: SANGER: Inhibition of human NCI-H2087 cell growth in a cell viability assay.

SN12C = test: cells; type: functional, cell-based; conditions: Homo sapiens
Description: SANGER: Inhibition of human SN12C cell growth in a cell viability assay.

NCI-H1573 = test: cells; type: functional, cell-based; conditions: Homo sapiens
Description: SANGER: Inhibition of human NCI-H1573 cell growth in a cell viability assay.

RD = test: cells; type: functional, cell-based; conditions: Homo sapiens
Description: SANGER: Inhibition of human RD cell growth in a cell viability assay.

L-540 = test: cells; type: functional, cell-based, Homo sapiens; conditions: Homo sapiens, L-540
Description: SANGER: Inhibition of human L-540 cell growth in a cell viability assay.

23132-87 = test: cells; type: functional, cell-based; conditions: Homo sapiens
Description: SANGER: Inhibition of human 23132-87 cell growth in a cell viability assay.

Panc1005 = test: cells; type: functional, cell-based; conditions: Homo sapiens
Description: SANGER: Inhibition of human PANC-10-05 cell growth in a cell viability assay.

MDA-MB-453 = test: cells; type: functional, cell-based; conditions: Homo sapiens
Description: SANGER: Inhibition of human MDA-MB-453 cell growth in a cell viability assay.

DOK = test: cells; type: functional, cell-based; conditions: Homo sapiens
Description: SANGER: Inhibition of human DOK cell growth in a cell viability assay.

LCLC-97TM1 = test: cells; type: functional, cell-based; conditions: Homo sapiens
Description: SANGER: Inhibition of human LCLC-97TM1 cell growth in a cell viability assay.

PF-382 = test: cells; type: functional, cell-based, Homo sapiens; conditions: Homo sapiens, PF-382
Description: SANGER: Inhibition of human PF-382 cell growth in a cell viability assay.

NCI-H28 = test: cells; type: functional, cell-based; conditions: Homo sapiens
Description: SANGER: Inhibition of human NCI-H28 cell growth in a cell viability assay.

HC-1 = test: cells; type: functional, cell-based, Homo sapiens; conditions: Homo sapiens, HC-1
Description: SANGER: Inhibition of human HC-1 cell growth in a cell viability assay.

SK-LU-1 = test: cells; type: functional, cell-based; conditions: Homo sapiens
Description: SANGER: Inhibition of human SK-LU-1 cell growth in a cell viability assay.

NCI-H650 = test: cells; type: functional, cell-based; conditions: Homo sapiens
Description: SANGER: Inhibition of human NCI-H650 cell growth in a cell viability assay.

ME-180 = test: cells; type: functional, cell-based; conditions: Homo sapiens
Description: SANGER: Inhibition of human ME-180 cell growth in a cell viability assay.

LN-405 = test: cells; type: functional, cell-based; conditions: Homo sapiens
Description: SANGER: Inhibition of human LN-405 cell growth in a cell viability assay.

HSC-2 = test: cells; type: functional, cell-based; conditions: Homo sapiens
Description: SANGER: Inhibition of human HSC-2 cell growth in a cell viability assay.

HT-29 = test: cells; type: functional, cell-based; conditions: Homo sapiens
Description: SANGER: Inhibition of human HT-29 cell growth in a cell viability assay.

SW1573 = test: cells; type: functional, cell-based; conditions: Homo sapiens
Description: SANGER: Inhibition of human SW1573 cell growth in a cell viability assay.

HCT-15 = test: cells; type: functional, cell-based; conditions: Homo sapiens
Description: SANGER: Inhibition of human HCT-15 cell growth in a cell viability assay.

CAPAN-1 = test: cells; type: functional, cell-based; conditions: Homo sapiens
Description: SANGER: Inhibition of human CAPAN-1 cell growth in a cell viability assay.

Huh-7 = test: cells; type: functional, cell-based; conditions: Homo sapiens
Description: SANGER: Inhibition of human HuH-7 cell growth in a cell viability assay.

COR-L279 = test: SANGER: Inhibition of human COR-L279 cell growth in a cell viability assay.; type: functional, cell-based; conditions: Homo sapiens, COR-L279
RCM-1 = test: cells; type: functional, cell-based; conditions: Homo sapiens
Description: SANGER: Inhibition of human RCM-1 cell growth in a cell viability assay.

ACHN = test: cells; type: functional, cell-based; conditions: Homo sapiens
Description: SANGER: Inhibition of human ACHN cell growth in a cell viability assay.

RERF-LC-MS = test: cells; type: functional, cell-based; conditions: Homo sapiens
Description: SANGER: Inhibition of human RERF-LC-MS cell growth in a cell viability assay.

HN = test: cells; type: functional, cell-based; conditions: Homo sapiens
Description: SANGER: Inhibition of human HN cell growth in a cell viability assay.

SW1710 = test: cells; type: functional, cell-based; conditions: Homo sapiens
Description: SANGER: Inhibition of human SW1710 cell growth in a cell viability assay.

SIMA = test: cells; type: functional, cell-based, Homo sapiens; conditions: Homo sapiens, SIMA
Description: SANGER: Inhibition of human SIMA cell growth in a cell viability assay.

SW1463 = test: cells; type: functional, cell-based; conditions: Homo sapiens
Description: SANGER: Inhibition of human SW1463 cell growth in a cell viability assay.

LP-1 = test: cells; type: functional, cell-based, Homo sapiens; conditions: Homo sapiens, LP-1
Description: SANGER: Inhibition of human LP-1 cell growth in a cell viability assay.

Daoy = test: cells; type: functional, cell-based; conditions: Homo sapiens
Description: SANGER: Inhibition of human Daoy cell growth in a cell viability assay.

Detroit 562 = test: cells; type: functional, cell-based; conditions: Homo sapiens
Description: SANGER: Inhibition of human Detroit562 cell growth in a cell viability assay.

EB2 = test: cells; type: functional, cell-based, Homo sapiens; conditions: Homo sapiens, EB2
Description: SANGER: Inhibition of human EB2 cell growth in a cell viability assay.

KMS-12-PE = test: cells; type: functional, cell-based, Homo sapiens; conditions: Homo sapiens, KMS-12-PE
Description: SANGER: Inhibition of human KMS-12-PE cell growth in a cell viability assay.

COLO-678 = test: cells; type: functional, cell-based; conditions: Homo sapiens
Description: SANGER: Inhibition of human COLO-678 cell growth in a cell viability assay.

EFO-21 = test: cells; type: functional, cell-based; conditions: Homo sapiens
Description: SANGER: Inhibition of human EFO-21 cell growth in a cell viability assay.

NCI-H1755 = test: cells; type: functional, cell-based; conditions: Homo sapiens
Description: SANGER: Inhibition of human NCI-H1755 cell growth in a cell viability assay.

THP-1 = test: cells; type: functional, cell-based, Homo sapiens; conditions: Homo sapiens, THP-1
Description: SANGER: Inhibition of human THP-1 cell growth in a cell viability assay.

CA46 = test: cells; type: functional, cell-based, Homo sapiens; conditions: Homo sapiens, CA46
Description: SANGER: Inhibition of human CA46 cell growth in a cell viability assay.

BC-3 = test: cells; type: functional, cell-based, Homo sapiens; conditions: Homo sapiens, BC-3
Description: SANGER: Inhibition of human BC-3 cell growth in a cell viability assay.

D-542MG = test: cells; type: functional, cell-based; conditions: Homo sapiens
Description: SANGER: Inhibition of human D-542MG cell growth in a cell viability assay.

J82 = test: cells; type: functional, cell-based; conditions: Homo sapiens
Description: SANGER: Inhibition of human J82 cell growth in a cell viability assay.

NCI-H810 = test: cells; type: functional, cell-based; conditions: Homo sapiens
Description: SANGER: Inhibition of human NCI-H810 cell growth in a cell viability assay.

CAL-72 = test: cells; type: functional, cell-based; conditions: Homo sapiens
Description: SANGER: Inhibition of human CAL-72 cell growth in a cell viability assay.

NCI-H358 = test: cells; type: functional, cell-based; conditions: Homo sapiens
Description: SANGER: Inhibition of human NCI-H358 cell growth in a cell viability assay.

CAL-51 = test: cells; type: functional, cell-based; conditions: Homo sapiens
Description: SANGER: Inhibition of human CAL-51 cell growth in a cell viability assay.

KOSC-2 = test: cells; type: functional, cell-based; conditions: Homo sapiens
Description: SANGER: Inhibition of human KOSC-2 cell growth in a cell viability assay.

KP-4 = test: cells; type: functional, cell-based; conditions: Homo sapiens
Description: SANGER: Inhibition of human KP-4 cell growth in a cell viability assay.

CAL-39 = test: cells; type: functional, cell-based; conditions: Homo sapiens
Description: SANGER: Inhibition of human CAL-39 cell growth in a cell viability assay.

OAW-28 = test: cells; type: functional, cell-based; conditions: Homo sapiens
Description: SANGER: Inhibition of human OAW-28 cell growth in a cell viability assay.

NCI-H748 = test: cells; type: functional, cell-based, Homo sapiens; conditions: Homo sapiens, NCI-H748
Description: SANGER: Inhibition of human NCI-H748 cell growth in a cell viability assay.

SW1417 = test: cells; type: functional, cell-based; conditions: Homo sapiens
Description: SANGER: Inhibition of human SW1417 cell growth in a cell viability assay.

MCF7 = test: cells; type: functional, cell-based; conditions: Homo sapiens
Description: SANGER: Inhibition of human MCF7 cell growth in a cell viability assay.

HMV-2 cell line = test: cells; type: functional, cell-based; conditions: Homo sapiens
Description: SANGER: Inhibition of human HMV-II cell growth in a cell viability assay.

LOUCY = test: cells; type: functional, cell-based, Homo sapiens; conditions: Homo sapiens, LOUCY
Description: SANGER: Inhibition of human LOUCY cell growth in a cell viability assay.

LoVo = test: cells; type: functional, cell-based; conditions: Homo sapiens
Description: SANGER: Inhibition of human LoVo cell growth in a cell viability assay.

YAPC = test: cells; type: functional, cell-based; conditions: Homo sapiens
Description: SANGER: Inhibition of human YAPC cell growth in a cell viability assay.

BFTC-909 = test: cells; type: functional, cell-based; conditions: Homo sapiens
Description: SANGER: Inhibition of human BFTC-909 cell growth in a cell viability assay.

Daudi = test: cells; type: functional, cell-based, Homo sapiens; conditions: Homo sapiens, Daudi
Description: SANGER: Inhibition of human Daudi cell growth in a cell viability assay.

## C/C(=C\c1csc(C)n1)[C@@H]1C[C@@H]2O[C@]2(C)CCC[C@H](C)[C@H](O)[C@@H](C)C(=O)C(C)(C)[C@@H](O)CC(=O)O1 [PATUPILONE]
SNU-387
  IC50: 5.66 nM
NCI-H2087
  IC50: 3.11 nM
SN12C
  IC50: 9.39 nM
NCI-H1573
  IC50: 6.42 nM
RD
  IC50: 4.42 nM
L-540
  IC50: 10.7 nM
23132-87
  IC50: 3.67 nM
Panc1005
  IC50: 1.12 nM
MDA-MB-453
  IC50: > 32 nM
DOK
  IC50: > 32 nM
LCLC-97TM1
  IC50: 0.444 nM
PF-382
  IC50: 8.68 nM
NCI-H28
  IC50: 22 nM
HC-1
  IC50: 3.98 nM
SK-LU-1
  IC50: 0.866 nM
NCI-H650
  IC50: 0.17 nM
ME-180
  IC50: 5.74 nM
LN-405
  IC50: > 32 nM
HSC-2
  IC50: 0.363 nM
HT-29
  IC50: 0.499 nM
SW1573
  IC50: 14.6 nM
HCT-15
  IC50: 0.717 nM
CAPAN-1
  IC50: 4 nM
Huh-7
  IC50: 7.11 nM
COR-L279
  IC50: 9.27 nM
RCM-1
  IC50: 15.2 nM
ACHN
  IC50: 0.749 nM
RERF-LC-MS
  IC50: 24.5 nM
HN
  IC50: > 32 nM
SW1710
  IC50: < 0.125 nM
SIMA
  IC50: 19.1 nM
SW1463
  IC50: > 32 nM
LP-1
  IC50: > 32 nM
Daoy
  IC50: < 0.125 nM
Detroit 562
  IC50: 1.4 nM
EB2
  IC50: 3.69 nM
KMS-12-PE
  IC50: > 32 nM
COLO-678
  IC50: > 32 nM
EFO-21
  IC50: 9.82 nM
NCI-H1755
  IC50: > 32 nM
THP-1
  IC50: 23.5 nM
CA46
  IC50: 9.61 nM
BC-3
  IC50: 8.39 nM
D-542MG
  IC50: > 32 nM
J82
  IC50: 1.41 nM
NCI-H810
  IC50: 0.322 nM
CAL-72
  IC50: > 32 nM
NCI-H358
  IC50: 2.48 nM
CAL-51
  IC50: 1.66 nM
KOSC-2
  IC50: 2.83 nM
KP-4
  IC50: 0.682 nM
CAL-39
  IC50: 0.411 nM
OAW-28
  IC50: 7.95 nM
NCI-H748
  IC50: > 32 nM
SW1417
  IC50: > 32 nM
MCF7
  IC50: 0.0866 nM
HMV-2 cell line
  IC50: 0.394 nM
LOUCY
  IC50: 4.35 nM
LoVo
  IC50: 1.85 nM
YAPC
  IC50: > 32 nM
BFTC-909
  IC50: 1.56 nM
Daudi
  IC50: 24.8 nM

## COc1ccc(-c2cc3nccn3c(Nc3ncccc3C(N)=O)n2)cc1OC
SNU-387
  IC50: 2900 nM
NCI-H2087
  IC50: 2790 nM
SN12C
  IC50: > 8000 nM
NCI-H1573
  IC50: > 8000 nM
RD
  IC50: > 8000 nM
L-540
  IC50: > 8000 nM
23132-87
  IC50: > 8000 nM
Panc1005
  IC50: 4150 nM
MDA-MB-453
  IC50: > 8000 nM
DOK
  IC50: > 8000 nM
LCLC-97TM1
  IC50: 570 nM
PF-382
  IC50: 2410 nM
NCI-H28
  IC50: > 8000 nM
HC-1
  IC50: 754 nM
SK-LU-1
  IC50: 2030 nM
NCI-H650
  IC50: > 8000 nM
ME-180
  IC50: > 8000 nM
LN-405
  IC50: > 8000 nM
HSC-2
  IC50: 4530 nM
HT-29
  IC50: 2810 nM
SW1573
  IC50: > 8000 nM
HCT-15
  IC50: 6640 nM
CAPAN-1
  IC50: 4160 nM
Huh-7
  IC50: > 8000 nM
COR-L279
  IC50: 4200 nM
RCM-1
  IC50: > 8000 nM
ACHN
  IC50: 1380 nM
RERF-LC-MS
  IC50: > 8000 nM
HN
  IC50: > 8000 nM
SW1710
  IC50: 1660 nM
SIMA
  IC50: 7180 nM
SW1463
  IC50: > 8000 nM
LP-1
  IC50: 4020 nM
Daoy
  IC50: > 8000 nM
Detroit 562
  IC50: 3880 nM
EB2
  IC50: 837 nM
KMS-12-PE
  IC50: > 8000 nM
COLO-678
  IC50: > 8000 nM
EFO-21
  IC50: > 8000 nM
NCI-H1755
  IC50: > 8000 nM
THP-1
  IC50: > 8000 nM
CA46
  IC50: 1080 nM
BC-3
  IC50: 2470 nM
D-542MG
  IC50: > 8000 nM
J82
  IC50: 1510 nM
NCI-H810
  IC50: 4440 nM
CAL-72
  IC50: > 8000 nM
NCI-H358
  IC50: 689 nM
CAL-51
  IC50: 3020 nM
KOSC-2
  IC50: > 8000 nM
KP-4
  IC50: > 8000 nM
CAL-39
  IC50: 3570 nM
OAW-28
  IC50: > 8000 nM
NCI-H748
  IC50: > 8000 nM
SW1417
  IC50: > 8000 nM
MCF7
  IC50: 1150 nM
HMV-2 cell line
  IC50: 664 nM
LOUCY
  IC50: 3650 nM
LoVo
  IC50: 2610 nM
YAPC
  IC50: > 8000 nM
BFTC-909
  IC50: > 8000 nM
Daudi
  IC50: 607 nM
